Assay results from patent US20250041307A1, “Uses of Bicyclic Compounds for the Treatment of Diseases” (Athira Pharma, Inc., priority 2021, published 2025).

Columns and labels:
[1] = In vitro stability in rat plasma; assay type: in vitro ADME; details: 5 μM, 37° C.
Experimental: (§1) Bioavailability can be estimated by compound stability when exposed to conditions in the body. As an initial assessment of stability properties in a variety of conditions present in animals, exemplary compounds were tested for stability in a battery of simulated body compartments. Compounds were tested for stability in the following solutions: simulated gastric fluid (SGF: 34.2 mM NaCl, pH 1.2), simulated gastric fluid with the digestive enzyme pepsin (SGF+Enzyme: SGF with 3.2 mg/ml pepsin), simulated intestinal fluid with the mixture of enzymes in porcine pancreatin (SIF+Enzyme: 28.7 mM NaH2PO4, 105.7 mM NaCl, pH 6.8, 10 mg/ml pancreatin), rat plasma, and human plasma.
(§2) Test compounds were incubated at a final concentration of 5 μM in the above solutions at 37° C. with samples removed at the following time points: 0, 1, 2, and 4 hours. Reactions were stopped and prepared for quantification by addition of excess quench solution containing an internal standard (acetonitrile, 200 ng/mL bucetin). Test compound and internal standard in each sample was quantified by LC-MS/MS, and after internal normalization to bucetin, test compound concentration was expressed as a percentage of concentration at the 0-hour time point. Stability in the relevant test solution was then determined by the percent remaining at the 4-hour time point.

[2] = In vivo tissue distribution; parameters: species or system Sprague-dawley rats; details: rat, 10 minutes post administration
Experimental: The rate of distribution to target tissues is an important feature of therapeutic molecules. Tissue distribution of exemplary compounds was performed in mixed-sex Sprague-dawley rats. Test compounds were delivered via tail vein injection (IV) and tissues were collected at Tmax (10 minutes post administration). Animals were deeply anesthetized with isoflurane and whole blood was collected from the right atrium and processed by centrifugation to produce plasma. Animals were then fully perfused with PBS administered to the left ventricle to prevent blood contamination of tissues.
Tissues were collected and homogenized, and compound content in the target tissue was quantified by LC-MS/MS. Tissue distribution rates were determined by dividing the tissue concentration of compound by the plasma concentration and multiplying by 100.

[3] = In vitro stability in human plasma; assay type: in vitro ADME; details: 5 μM, 37° C.
Experimental: as §1, §2

[4] = test system: MDCK cells; assay: Cell scattering behavior assay; assay type: cell-based; details: with 5 ng/mL HGF, 24 hours, normalized particle count compared to HGF treatment alone
Outline: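 MDCK cells starved 2 h in serum-free DMEM, then treated 24 h at 37 °C with compounds plus 5 ng/mL HGF. Cells were ethanol-fixed, WGA488-stained and imaged. Scattering was scored as particle count normalized to stained area, with activity taken as a statistical increase in normalized particle count over HGF alone.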

What does the source list for `C=CCCN1CC2N(C(=O)c3ccc(C(F)(F)F)cc3)CCC(=O)N2C(C)C1=O` (centres unmarked) [Compound 22]?
Rat Plasma, compound remaining after 4 hours [1]: +++ (+++ indicates 80-99% compound remaining after 4 hours); Tissue Distribution (% Plasma exposure at 10 min post IV dose) Brain ([2]; brain): ++ (++ indicates distribution between 5 and 39%); Tissue Distribution (% Plasma exposure at 10 min post IV dose) Cerebellum ([2]; cerebellum): ++ (++ indicates distribution between 5 and 39%); Tissue Distribution (% Plasma exposure at 10 min post IV dose) Cortex ([2]; cortex): ++ (++ indicates distribution between 5 and 39%); Tissue Distribution (% Plasma exposure at 10 min post IV dose) Hippocampus ([2]; hippocampus): ++ (++ indicates distribution between 5 and 39%); Tissue Distribution (% Plasma exposure at 10 min post IV dose) Sciatic Nerve ([2]; sciatic nerve): +++ (+++ indicates distribution between 40 and 69%); Human Plasma, compound remaining after 4 hours [3]: +++ (+++ indicates 80-99% compound remaining after 4 hours); Potency [4]: ++ (++ indicates maximum potency at or above 10 nM)
